# Measurements taken from US11634396B2 (priority 2021, dated 2023).
# Like-named read-outs stand apart in the source and are kept apart here.
# Legend:
# human dOR = human dOR (Homo sapiens (Human), UniProt P41143); assay: cell-based; details: dOR cAMP Agonist Assay EC50, CHO Tag-lite human dOR stable cell line; forskolin
# human mOR = human mOR (Homo sapiens (Human), UniProt P35372); assay: cell-based
# [1] = CHO Tag-lite human mOR stable cell line, forskolin 4 μM and DAMGO at EC90, read-out: mOR cAMP Antagonist Assay IC50
# Sequence of human mOR (P35372 whole entry): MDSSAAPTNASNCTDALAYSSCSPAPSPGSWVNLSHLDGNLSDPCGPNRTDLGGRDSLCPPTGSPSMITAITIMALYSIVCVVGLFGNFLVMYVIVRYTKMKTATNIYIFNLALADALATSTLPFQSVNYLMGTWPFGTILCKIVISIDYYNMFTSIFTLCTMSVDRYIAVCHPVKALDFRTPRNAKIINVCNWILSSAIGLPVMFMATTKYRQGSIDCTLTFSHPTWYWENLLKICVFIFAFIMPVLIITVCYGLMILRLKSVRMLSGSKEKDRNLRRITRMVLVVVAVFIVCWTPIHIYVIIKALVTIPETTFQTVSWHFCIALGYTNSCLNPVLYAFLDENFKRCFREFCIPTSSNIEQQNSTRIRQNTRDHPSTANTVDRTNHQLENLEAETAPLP
# Sequence of human dOR (P41143 whole entry): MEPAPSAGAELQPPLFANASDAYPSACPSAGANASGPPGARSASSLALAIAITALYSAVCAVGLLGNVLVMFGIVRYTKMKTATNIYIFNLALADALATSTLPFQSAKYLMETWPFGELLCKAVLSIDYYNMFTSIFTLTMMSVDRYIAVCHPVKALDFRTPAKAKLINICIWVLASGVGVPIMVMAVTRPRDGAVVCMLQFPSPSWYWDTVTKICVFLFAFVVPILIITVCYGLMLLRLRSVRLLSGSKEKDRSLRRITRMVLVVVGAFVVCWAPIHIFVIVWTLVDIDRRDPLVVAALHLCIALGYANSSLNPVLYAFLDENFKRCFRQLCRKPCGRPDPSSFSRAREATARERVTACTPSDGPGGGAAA
SMILES,EC50 (human dOR) [nM],IC50 (human mOR) [nM],IC50 (human mOR; [1]) [nM]
"Cc1cc(C(N)=O)cc(C)c1C[C@@H](CNC(=O)C[C@H](CC(C)C)c1ccccc1)N(C)C [Compound 9, 4-[(2S)-2-(dimethylamino)-3-[(3S)-5-methyl-3-phenylhexanamido]propyl]-3,5-dimethylbenzamide]",> 3000,< 300,
"Cc1cc(C(N)=O)cc(C)c1C[C@@H](CNC(=O)C[C@H](c1ccccc1)C(C)(C)C)N(C)C [Compound 13, 4-[(2S)-3-[(3S)-4,4-dimethyl-3-phenylpentanamido]-2-(dimethylamino)propyl]-3,5-dimethylbenzamide]",> 3000,< 300,
"CC(C)[C@@H](CC(=O)NC[C@H](Cc1ccc(C(N)=O)cc1Cl)N(C)C)c1ccccc1 [Compound 40, 3-chloro-4-((S)-2-(dimethylamino)-3-((R)-4-methyl-3-phenylpentanamido)propyl)benzamide]",< 300,> 3000,
"CC(C)[C@@H](CC(=O)NC[C@H](Cc1ccc(C(N)=O)cc1)N(C)C)c1ccccc1 [Compound 92, 4-((S)-2-(dimethylamino)-3-((R)-4-methyl-3-phenylpentanamido)propyl)benzamide]",< 300,< 300,
"CN(C)[C@H](CNC(=O)C[C@@H](c1ccccc1)C(C)(C)C)Cc1ccc(C(N)=O)cc1 [Compound 93, 4-[(2S)-3-[(3R)-4,4-dimethyl-3-phenylpentanamido]-2-(dimethylamino)propyl]benzamide]",< 300,< 300,
"CC(C)[C@H](CC(=O)NC[C@H](Cc1ccc(C(N)=O)cc1)N(C)C)c1ccccc1 [Compound 94, 4-[(2S)-2-(dimethylamino)-3-[(3S)-4-methyl-3-phenylpentanamido]propyl]benzamide]",< 300,< 300,
"CN(C)[C@H](CNC(=O)C[C@@H](c1ccccc1)C(C)(C)C)Cc1ccc(C(N)=O)cc1 [Compound 95, 4-((S)-3-((R)-4,4-dimethyl-3-phenylpentanamido)-2-(dimethylamino)propyl)benzamide]",> 3000,,
"CN(C)[C@H](CNC(=O)C[C@H](c1ccccc1)C(C)(C)C)Cc1ccc(C(=O)NCC(F)(F)F)c(F)c1 [Compound 101, 4-((S)-3-((S)-4,4-dimethyl-3-phenylpentanamido)-2-(dimethylamino)propyl)-2-fluoro-N-(2,2,2-trifluoroethyl)benzamide]",300 to 3000,,< 300
"CNC(=O)c1cc(F)c(C[C@@H](CNC(=O)C[C@H](c2ccccc2)C(C)(C)C)N(C)C)cc1F [Compound 104, 4-((S)-3-((S)-4,4-dimethyl-3-phenylpentanamido)-2-(dimethylamino)propyl)-2,5-difluoro-N-methylbenzamide]",300 to 3000,< 300,
"CNC(=O)c1cc(C)c(C[C@@H](CNC(=O)C[C@@H](c2ccccc2)C(C)(C)C)N(C)C)cc1F [Compound 146, 4-((S)-3-((R)-4,4-dimethyl-3-phenylpentanamido)-2-(dimethylamino)propyl)-2-fluoro-N,5-dimethylbenzamide]",> 3000,< 300,
"CNC(=O)c1ccc(C[C@@H](CNC(=O)C[C@@H](CC(C)C)c2ccccc2)N(C)C)cc1Cl [Compound 147, 2-chloro-4-((S)-2-(dimethylamino)-3-((R)-5-methyl-3-phenylhexanamido)propyl)-N-methylbenzamide]",< 300,< 300,
"CNC(=O)c1ccc(C[C@@H](CNC(=O)C[C@H](c2ccccc2)C(C)C)N(C)C)cc1Cl [Compound 148, 2-chloro-4-((S)-2-(dimethylamino)-3-((S)-4-methyl-3-phenylpentanamido)propyl)-N-methylbenzamide]",300 to 3000,300 to 3000,
"CNC(=O)c1ccc(C[C@@H](CNC(=O)C[C@H](c2ccccc2)C(C)(C)C)N(C)C)cc1Cl [Compound 150, 2-chloro-4-((S)-3-((S)-4,4-dimethyl-3-phenylpentanamido)-2-(dimethylamino)propyl)-N-methylbenzamide]",> 3000,< 300,
"CNC(=O)c1ccc(C[C@@H](CNC(=O)C[C@@H](C)c2ccc(Cl)cc2)N(C)C)cc1F [Compound 155, 4-((S)-3-((R)-3-(4-chlorophenyl)butanamido)-2-(dimethylamino)propyl)-2-fluoro-N-methylbenzamide]",< 300,,< 300
"CNC(=O)c1ccc(C[C@@H](CNC(=O)C[C@H](C)c2ccc(Cl)cc2)N(C)C)cc1F [Compound 156, 4-((S)-3-((S)-3-(4-chlorophenyl)butanamido)-2-(dimethylamino)propyl)-2-fluoro-N-methylbenzamide]",300 to 3000,,< 300
"CNC(=O)c1ccc(C[C@@H](CNC(=O)C[C@H](c2ccccc2)C(C)(C)C)N2CCCC2)cc1F [Compound 157, 4-((S)-3-((S)-4,4-dimethyl-3-phenylpentanamido)-2-(pyrrolidin-1-yl)propyl)-2-fluoro-N-methylbenzamide]",> 3000,< 300,

SMILES,EC50 (human dOR) [nM],IC50 (human mOR) [nM],IC50 (human mOR; [1]) [nM]
"CNC(=O)c1ccc(C[C@@H](CNC(=O)C[C@H](c2ccccc2)C(C)(C)C)N(C)C)cc1F [Compound 158, 4-((S)-3-((S)-4,4-dimethyl-3-phenylpentanamido)-2-(dimethylamino)propyl)-2-fluoro-N-methylbenzamide]",> 3000,< 300,
"CNC(=O)c1ccc(C[C@@H](CNC(=O)C[C@@H](c2ccccc2)C(C)(C)C)N(C)C)cc1F [Compound 159, 4-((S)-3-((R)-4,4-dimethyl-3-phenylpentanamido)-2-(dimethylamino)propyl)-2-fluoro-N-methylbenzamide]",300 to 3000,< 300,
"CNC(=O)c1ccc(C[C@@H](CNC(=O)C[C@@H](CC(C)C)c2ccccc2)N(C)C)cc1F [Compound 160, 4-((S)-2-(dimethylamino)-3-((R)-5-methyl-3-phenylhexanamido)propyl)-2-fluoro-N-methylbenzamide]",< 300,< 300,
"CNC(=O)c1ccc(C[C@@H](CNC(=O)C[C@@H](c2ccccc2)C(C)C)N(C)C)cc1F [Compound 162, 4-((S)-2-(dimethylamino)-3-((R)-4-methyl-3-phenylpentanamido)propyl)-2-fluoro-N-methylbenzamide]",300 to 3000,< 300,
"CNC(=O)c1ccc(C[C@@H](CNC(=O)C[C@H](C)c2ccccn2)N(C)C)cc1F [Compound 163, 4-((S)-2-(dimethylamino)-3-((S)-3-(pyridin-2-yl)butanamido)propyl)-2-fluoro-N-methylbenzamide]",> 3000,< 300,
"CNC(=O)c1ccc2c(c1)CN(C)[C@H](CNC(=O)C[C@H](c1ccccc1)C(C)(C)C)C2 [Compound 168, (S)-3-(((S)-4,4-dimethyl-3-phenylpentanamido)methyl)-N,2-dimethyl-1,2,3,4-tetrahydroisoquinoline-7-carboxamide]",> 3000,300 to 3000,
"CC(C)C[C@@H](CC(=O)NC[C@H](Cc1ccc2[nH]c(=O)oc2c1)N(C)C)c1ccccc1 [Compound 172, (3S)-N-[(2S)-2-(dimethylamino)-3-(2-oxo-2,3-dihydro-1,3-benzoxazol-6-yl)propyl]-5-methyl-3-phenylhexanamide]",< 300,< 300,
"CC(C)[C@@H](CC(=O)NC[C@H](Cc1ccc2[nH]c(=O)oc2c1)N(C)C)c1ccccc1 [Compound 173, (R)-N-((S)-2-(dimethylamino)-3-(2-oxo-2,3-dihydrobenzo[d]oxazol-6-yl)propyl)-4-methyl-3-phenylpentanamide]",< 300,< 300,
CCCC[C@@H](CC(=O)NC[C@H](Cc1ccc2[nH]c(=O)oc2c1)N(C)C)c1ccccc1 [Compound 174],< 300,< 300,
"CN(C)[C@H](CNC(=O)C[C@H](c1ccccc1)C1CC1)Cc1ccc2[nH]c(=O)oc2c1 [Compound 177, (S)-3-cyclopropyl-N-((S)-2-(dimethylamino)-3-(2-oxo-2,3-dihydrobenzo[d]oxazol-6-yl)propyl)-3-phenylpropanamide]",300 to 3000,< 300,
"CN(C)[C@H](CNC(=O)C[C@@H](c1ccccc1)C1CC1)Cc1ccc2[nH]c(=O)oc2c1 [Compound 178, (R)-3-cyclopropyl-N-((S)-2-(dimethylamino)-3-(2-oxo-2,3-dihydrobenzo[d]oxazol-6-yl)propyl)-3-phenylpropanamide]",300 to 3000,< 300,
"CC(C)[C@@H](CC(=O)NC[C@H](Cc1ccc2c(c1)CC(=O)N2)N(C)C)c1ccccc1 [Compound 182, (R)-N-((S)-2-(dimethylamino)-3-(2-oxoindolin-5-yl)propyl)-4-methyl-3-phenylpentanamide]",> 3000,,> 3000
"CC(C)C[C@@H](CC(=O)NC[C@H](Cc1ccc2c(c1)CC(=O)N2)N(C)C)c1ccccc1 [Compound 183, (S)-N-((S)-2-(dimethylamino)-3-(2-oxoindolin-5-yl)propyl)-5-methyl-3-phenylhexanamide]",> 3000,< 300,
"CN(C)[C@H](CNC(=O)CC(c1ccc(C(F)(F)F)nc1)C1(C(F)(F)F)CC1)Cc1ccc(O)cc1 (stereo partly drawn) [Compound 314, N-((S)-2-(dimethylamino)-3-(4-hydroxyphenyl)propyl)-3-(1-(trifluoromethyl)cyclopropyl)-3-(6-(trifluoromethyl)pyridin-3-yl)propanamide]",,< 300,
"Cc1cc([C@@H](CC(=O)NC[C@H](Cc2ccc(O)cc2)N(C)C)C2(C(F)(F)F)CC2)cs1 [Compound 322, (S)-N-((S)-2-(dimethylamino)-3-(4-hydroxyphenyl)propyl)-3-(5-methylthiophen-3-yl)-3-(1-(trifluoromethyl)cyclopropyl)propanamide]",,< 300,
"Cc1cnc([C@@H](CC(=O)NC[C@H](Cc2ccc(-c3nnc[nH]3)cc2)N(C)C)C2(C(F)(F)F)CC2)s1 [Compound 325, (S)-N-((S)-3-(4-(4H-1,2,4-triazol-3-yl)phenyl)-2-(dimethylamino)propyl)-3-(5-methylthiazol-2-yl)-3-(1-(trifluoromethyl)cyclopropyl) propanamide]",,,300 to 3000
